The values that follow come from ChEMBL document CHEMBL3627630, “Fragment-based discovery of potent ERK2 pyrrolopyrazine inhibitors” (Bioorg Med Chem Lett, 2015).

Each structure is given as a SMILES string. Where only a bound is given, the exact number is not on record here.

One assay deals with T1, Mitogen-activated protein kinase 1 (Homo sapiens, UniProt P28482). Nature of the assay: Inhibition of human recombinant ERK2 expressed in Escherichia coli using Omnia peptide S/T17 as substrate measured every 50 seconds for 30 mins.
T1 sequence (P28482 whole entry): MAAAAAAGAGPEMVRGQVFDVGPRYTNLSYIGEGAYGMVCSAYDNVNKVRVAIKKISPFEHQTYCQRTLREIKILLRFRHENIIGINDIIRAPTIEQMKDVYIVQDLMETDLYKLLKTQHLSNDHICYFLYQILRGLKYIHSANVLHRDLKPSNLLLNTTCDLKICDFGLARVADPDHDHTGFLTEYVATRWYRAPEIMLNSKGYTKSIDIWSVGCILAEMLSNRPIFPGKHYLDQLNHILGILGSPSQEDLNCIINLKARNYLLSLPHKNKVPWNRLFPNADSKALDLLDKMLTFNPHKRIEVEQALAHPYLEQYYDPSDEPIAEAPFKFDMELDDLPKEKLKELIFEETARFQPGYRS
Take `Cn1cc(-c2c[nH]c3ncc(-c4ccncc4)nc23)cn1`: the IC50 – broadly, the midpoint of a concentration-inhibition curve – came to 0.072 µM.

A further assay has as its target T1, Mitogen-activated protein kinase 1. Put plainly: Inhibition of ERK2 (unknown origin) using 5FAM-IPTSPITTTYFFFKKK as substrate after 1 hr by LC3K assay.
Consider `COc1ccc(-c2c[nH]c3ncc(-c4ccncc4)nc23)cn1`, for which the IC50 was 0.252 µM.

The molecule `c1ccc(Cn2cc(-c3c[nH]c4ncc(-c5ccncc5)nc34)cn2)cc1` yielded an IC50 of 0.037 µM. As to `c1cc(-c2cnc3[nH]cc(-c4cncnc4)c3n2)ccn1`, the IC50 was 2.2 µM. Consider `Oc1cccc(-c2cnc3[nH]ccc3n2)c1`, for which the concentration for half-maximal inhibition (IC50) is > 200 µM. Still for that read-out and setting: the figure for `NC(=O)c1ccc(-c2cnc3[nH]ccc3n2)cc1` is 44.1 µM; for `c1cncc(-c2cnc3[nH]ccc3n2)c1` it is 71.5 µM; for `c1cc2nc(-c3ccc4cn[nH]c4c3)cnc2[nH]1` it is 31.9 µM. Consider `c1cc(-c2cnc3[nH]ccc3n2)ccn1`, for which the IC50 stood at 11.7 µM.

With `NC(=O)c1cccc(-c2cnc3[nH]ccc3n2)c1`, the concentration for half-maximal inhibition (IC50) was > 200 µM. In turn, `c1cc(-c2cnc3[nH]cc(-c4ccn[nH]4)c3n2)ccn1` registered a half-maximal inhibitory concentration (IC50) of 0.94 µM. As to `CCCn1cc(-c2c[nH]c3ncc(-c4ccncc4)nc23)cn1`, it took 0.071 µM to reach half-maximal inhibition (IC50).

In the case of `OCCCn1cc(-c2c[nH]c3ncc(-c4ccncc4)nc23)cn1`, the half-inhibitory concentration (IC50) was found to be 0.623 µM.

`Cn1cc(-c2cnc3[nH]ccc3n2)cn1`: the concentration for half-maximal inhibition (IC50) is 22.5 µM. On the same count and under the same terms, the figure for `Fc1ccc(-c2cnc3[nH]ccc3n2)cc1` is 29.7 µM. Same read-out and setting: to `CCn1cc(-c2c[nH]c3ncc(-c4ccncc4)nc23)cn1` belongs 0.149 µM; to `Fc1cc(-c2cnc3[nH]ccc3n2)ccn1`, 21.6 µM; to `c1cc2nc(-c3cn[nH]c3)cnc2[nH]1`, 5.9 µM. Regarding `Cc1n[nH]c(C)c1-c1cnc2[nH]ccc2n1`, the half-inhibitory concentration (IC50) is 14 µM.

`Cc1n[nH]cc1-c1cnc2[nH]ccc2n1`: half-maximal inhibition (IC50) required 22.2 µM. As to `c1ncc(-c2c[nH]c3ncc(-c4cn[nH]c4)nc23)cn1`, the IC50 worked out at 1.05 µM. The molecule `Nc1ccc(-c2c[nH]c3ncc(-c4ccncc4)nc23)cn1` displayed a half-maximal inhibitory concentration (IC50) of 0.468 µM. Consider `Cc1ccc(-c2c[nH]c3ncc(-c4ccncc4)nc23)cn1`, for which the midpoint of inhibition, the IC50, lay at 0.634 µM. On the same count and under the same terms, the figure for `Brc1cnc2[nH]ccc2n1` is > 200 µM; for `c1cc(-c2cnc3[nH]cc(-c4cn[nH]c4)c3n2)ccn1` it is 0.354 µM. Molecule `Clc1ccc(-c2c[nH]c3ncc(-c4ccncc4)nc23)cn1` gave an IC50 of 0.182 µM. In turn, `c1ccc(-c2cnc3[nH]ccc3n2)cc1` registered an IC50 of 50.1 µM.

`Oc1ccc(-c2cnc3[nH]ccc3n2)cc1` showed an IC50 of 12.4 µM. Same read-out and setting: the figure for `c1cc(-c2cnc3[nH]cc(-c4cnn(CCN5CCOCC5)c4)c3n2)ccn1` is 0.416 µM; for `c1cncc(-c2c[nH]c3ncc(-c4cn[nH]c4)nc23)c1` it is 0.28 µM; for `COc1ccc(-c2cnc3[nH]ccc3n2)cc1` it is 89.7 µM. `c1cncc(-c2cnc3[nH]cc(-c4cccnc4)c3n2)c1` displayed an IC50 of 0.407 µM. On the same count and under the same terms, to `CC(C)Cn1cc(-c2c[nH]c3ncc(-c4ccncc4)nc23)cn1` belongs 0.091 µM; to `c1ccc(CCn2cc(-c3c[nH]c4ncc(-c5ccncc5)nc34)cn2)cc1`, 2 µM.

The target is the same in a further assay. Nature of the assay: Binding affinity to ERK2 (unknown origin) by surface plasmon resonance assay.
`c1cnc2[nH]ccc2n1`: binding was characterised by a dissociation constant (Kd) of 343 µM. The same measure, in the same setting: to `Brc1cnc2[nH]ccc2n1` belongs 319 µM; to `Brc1c[nH]c2nccnc12`, 97 µM; to `Brc1cnc2[nH]cc(I)c2n1`, 125 µM. With `c1ccc(CNc2ncnc3nc[nH]c23)cc1` [6-BENZYLAMINOPURINE], the Kd (as a rule, the constant that tells how readily two partners part at equilibrium) amounted to 247 µM.
